Legend:
[1] = system: sleep apnea in OSAS patients; conditions: cited from earlier work
[2] = system: spontaneous sleep apnea in the rat; test: spontaneous sleep apnea model in the rat (plethysmography with EEG/EMG recording); assay type: in vivo; conditions: for efficacy against sleep apnea (rate of apneas per hour of NREM and REM sleep, 6 hours of polygraphic recording): systemic injection 15 min before recording, Example 2, described as results that can be obtained
Description: Adult, male Sprague-Dawley rats (obtained from Sasco-King, Wilmington, Mass.; usually 8 per test group; average weight=300 g) are maintained on a 12-hour light (08:00-20:00 hour)/12-hour dark (20:00-08:00 hour) cycle for one week, housed in individual cages and given ad libitum access to food and water. Following the one week of acclimatization, animals are subjected to the following surgical procedures.
Acclimatized animals are anesthetized using a mixture of ketamine […] and xylazine (5 mg/kg) at a volume of 1 ml/kg body weight for the implantation of cortical electrodes for electroencephalogram (EEG) recording and neck muscle electrodes for electromyogram (EMG) recording. The surface of the skull is exposed surgically and cleaned with a 20% solution of hydrogen peroxide followed by a solution of 95% isopropyl alcohol. Next, a dental preparation of sodium fluoride (Flura-GEL®, Saslow Dental, Mt. Prospect, Ill.) is applied to harden the skull above the parietal cortex and allowed to remain in place for 5 minutes. The fluoride mixture is then removed from the skull above the parietal cortex. The EEG electrodes consisting of four stainless steel machine screws, having leads attached thereto, are threaded into the skull to rest on the dura over the parietal cortex. A thin layer of Justi® resin cement (Saslow Dental, Mt. Prospect, Ill.) is applied to cover the screw heads (of screws implanted in the skull) and surrounding skull to further promote the adhesion of the implant. EMG electrodes consisting of two ball-shaped wires are inserted into the bilateral neck musculature. All leads (i.e., EEG and EMG leads) are soldered to a miniature connector (39F1401, Newark Electronics, Schaumburg, Ill.). Lastly, the entire assembly is fixed to the skull with dental cement.
After surgery, all animals are allowed to recover for one week before being recorded for sleep and breathing.
Physiological parameters (see below) from each animal prepared as set forth in Example 1 are recorded on 2 occasions in random order, with recordings for an individual animal separated by at least 3 days. Fifteen minutes prior to each recording an animal receives a systemic injection (1 ml/kg intraperitoneal bolus) of either saline (control) or an active dose of a drug treatment.
Respiration is recorded by placing each animal, unrestrained, inside a single chamber plethysmograph (PLYUN1R/U; Buxco Electronics, Sharon, Conn.; dimension 6 in. ×10 in.×6 in.) ventilated with a bias flow of fresh room air at a rate of 2 L/min. A cable plugged onto the animal's connector and passed through a sealed port is used to collect the bioelectrical activity from the head implant.
Sleep and waking states are assessed using software developed by Benington et al. (1994, Sleep 17: 28-36) to analyze the biparietal EEG and nuchal EMG signals on 10-second epochs. This software discriminates wakefulness (W) as a high frequency low amplitude EEG with a concomitant high EMG tone, NREM sleep by increased spindle and […] together with decreased EMG tone, and REM sleep by a low ratio of a delta to theta activity and an absence of EMG tone. Sleep efficiency is measured as the percentage of total recorded epochs staged as NREM or REM sleep.
An accepted physiological animal model of spontaneous sleep apnea in the rat (see Radulovacki & Carley, 2002, in SLEEP-RELATED BREATHING DISORDERS: EXPERIMENTAL MODELS AND THERAPEUTIC POTENTIAL, (Carley & Radulovacki, eds.), Marcel Dekker: New York, pp. 3-16) is used to assess the effects of test drugs. More specifically, sleep apneas, defined as cessation of respiratory effort for at least 2.5 seconds, are scored for each recording session and associated with the stage of sleep in which they occur (i.e., NREM or REM sleep). The duration requirement of 2.5 seconds represents at least 2 “missed” breaths, which is therefore analogous to a 10 second apnea duration requirement in humans, which also reflects 2-3 missed breaths. […]

[3] = system: central apneas during all sleep stages; conditions: rats with frequent central apneas; cited from earlier work

O=C1CC2(CCCC2)CC(=O)N1CCCCN1CCN(c2ncccn2)CC1 [Buspirone]
patients with reduced apnea index ([1]; patients with sleep apnea syndrome (Mendelson et al., 1991)): 4 of 5

CCCCCNC(=O)c1coc([C@H]2[C@@H](Cc3ccccc3CCC(=O)O)[C@@H]3CC[C@H]2O3)n1 [Ifetroban]
efficacy against sleep apnea (rate of apneas per hour of NREM and REM sleep, 6 hours of polygraphic recording) [2]: dose-dependent efficacy

COc1cc(N)c(Cl)cc1C(=O)N[C@H]1CN2CCC1CC2 [R-zacopride]
apnea frequency [3]: reduce apnea frequency

CC(=O)NNC(=O)N1Cc2ccccc2Oc2ccc(Cl)cc21 [SC19220]
animals in which apnea was eliminated throughout the 6-hour recording ([2]; intraperitoneal injection, 0.005 mg/kg, 4 test animals): 2 of 4 | average reduction of apnea frequency with respect to placebo (DMSO) control injection ([2]; intraperitoneal injection, 0.005 mg/kg, 4 test animals, 6-hour recording): 64%

CN1CCN2c3ncccc3Cc3ccccc3C2C1 (stereo not drawn) [mirtazapine]
apnea frequency [3]: reduce apnea frequency | reduction of apnea frequency ([1]; one study of OSAS patients): 50%

Cc1nccn1CC1CCc2c(c3ccccc3n2C)C1=O (stereo not drawn) [ondansetron]
apnea frequency [3]: reduce apnea frequency | effect on sleep apnea ([1]; another study of OSAS patients): failed to demonstrate any effect

O=C(O)CCn1c2c(c3ccccc31)C[C@H](NS(=O)(=O)c1ccc(F)cc1)CC2 [ramatroban]
efficacy against sleep apnea (rate of apneas per hour of NREM and REM sleep, 6 hours of polygraphic recording) [2]: dose-dependent efficacy

diphloretin phosphate
efficacy against sleep apnea (rate of apneas per hour of NREM and REM sleep, 6 hours of polygraphic recording) [2]: dose-dependent efficacy

polyphloretin phosphate
efficacy against sleep apnea (rate of apneas per hour of NREM and REM sleep, 6 hours of polygraphic recording) [2]: dose-dependent efficacy

Reference: patent US8076315B2, “Pharmacological treatments for sleep disorders (apnoe) with prostanoid receptor antagonists” (The Board of Trustees of the University of Illinois, priority 2005, dated 2011)
